{"source": "patent US12496460B2", "about": "“System and method for quantitative dosimetry of photodynamic therapy in skin” (Trustees of Dartmouth College, priority 2020, dated 2025)", "key": {"[1]": {"system": "PpIX accumulation in athymic nude mice", "conditions": "mouse, in vivo", "procedure": "Example 1—Preclinical In-vivo Murine Measurements: The nude mouse model was used to examine the system's 100 ability to capture in-vivo production of PpIX. The measurements were performed on five athymic nude mice fed a low-chlorophyll diet to minimize tissue autofluorescence. For imaging, the mice were placed under anesthesia and onto a heated pad to regulate their body temperature; the temperature was monitored using an IR camera (TG165, FLIR Systems Inc.) and kept in the 32° C.-36° C. range. AMELUZ® (Biofontera Inc., Boston, MA), a 10% aminolevulinic acid hydrochloride gel, was topically applied to the backs of the mice as to contain an ALA-applied area and a control area within the field-of-view of the system 100. The mice were kept in a low-light environment to prevent photobleaching of the accumulated PpIX. Images of the mice were taken at 10-minute intervals for the first hour with subsequent images at two and three hours of incubation. The mice were kept under anesthesia during the first hour, placed back in the cage, and briefly placed back under anesthesia for imaging at two and three hours of incubation. The imaging parameters used for these measurements were iOS-generated images with ISO 400 and exposure set to 1/10th sec. The images were processed in ImageJ, where the red pixels were isolated for region-of-interest (ROI) pixel intensity calculation.\nIn this murine model, it was possible to quantitatively observe the PpIX accumulation in the ALA-applied area as early as 10 minutes with a clear visual accumulation in the 20-30 minute timeframe. In contrast, the control region was relatively flat for the first hour with a moderate increase in fluorescence observed at the two hour and three hour measurements as the mice begin systematic accumulation of the PpIX."}, "[2]": {"system": "PpIX fluorescence at AK treatment sites", "conditions": "human, in vivo", "procedure": "Example 2—Human Skin Test Measurement: In this human testing, the system's 100 performance was evaluated on three patients undergoing their standard clinical PDT treatment at the Dartmouth-Hitchcock Dermatology Department for treatment of AKs using Levulan® (Sun Pharma Industries Ltd., Mumbai, India), a 20% ALA solution [see FIG. 2A]. […] The standard procedure involves treatment of a site (e.g. face, scalp, arms, or legs) which is cleaned using ethanol and followed by non-occluded topical application of the ALA; the patient is then transferred to a low-light rest area for a 60-minute incubation period. […] Fluorescence images from a treatment site are gathered before the ALA is applied, at the 60-minute incubation, and post-PDT treatment [see FIG. 2B]. Discomfort levels experienced by the imaged patients were recorded during light irradiation via verbal rating of the pain. The goal of performing dosimeter imaging using the system 100 during treatment is to correlate the measured PpIX accumulation and PDT-induced photobleaching to patient outcomes and generate thresholds that can be used for individualized treatment guidance [see FIG. 2C]. […] Images were pre-processed using Adobe DNG Converter software and analyzed using MATLAB and ImageJ to extract the RAW pixel values. […]"}}}
{"smiles": "NCC(=O)CCC(=O)O", "note": "[ALA, aminolevulinic acid]", "values": [{"measurement": "time at which PpIX accumulation is quantitatively observed in the ALA-applied area", "setting": "[1]; athymic nude", "result": 10, "unit": "min"}, {"measurement": "timeframe of clear visual PpIX accumulation", "setting": "[1]; athymic nude", "result": "20 to 30", "unit": "min"}, {"measurement": "course of PpIX fluorescence over the three hours of incubation", "setting": "[1]", "result": "monotonic increase"}, {"measurement": "average pixel value (PpIX fluorescence) at 60 min incubation", "setting": "[2]", "result": "21.1±6.1"}]}
